Reference: paper PMC8622523, “New Diterpenoids from Mesona procumbens with Antiproliferative Activities Modulate Cell Cycle Arrest and Apoptosis in Human Leukemia Cancer Cells” (Pharmaceuticals, 2021)

Experiments:
[1] = system: PC-3 (human prostate carcinoma); experiment: Cytotoxicity assay (Cell Counting Kit-8), PC-3; assay type: cell-based; conditions: 72 h of drug treatment, means ± SD of 3 independent experiments
Experimental: (§1) A549 (human lung carcinoma), Hep-3B (human liver carcinoma), PC-3 (human prostate carcinoma), HT29 (human colon carcinoma), U937 (human monoblastic leukemia), and RAW 264.7 cells were purchased from the Food Industry Research and Development Institute (Hsinchu, Taiwan) and cultured in 10% heat-inactivated fetal bovine serum (FBS) in DMEM or RPMI-1640. Cell viability was determined by using Cell Counting Kit-8 (CCK-8; Dojindo, Rockville, MD, USA) according to the manufacturer’s instructions. All experiments were performed in triplicate.

[2] = system: Hep-3B (human liver carcinoma); experiment: Cytotoxicity assay (Cell Counting Kit-8), Hep-3B; assay type: cell-based; conditions: 72 h of drug treatment, means ± SD of 3 independent experiments
Experimental: as §1

[3] = system: HT29 (human colon carcinoma); experiment: Cytotoxicity assay (Cell Counting Kit-8), HT29; assay type: cell-based; conditions: 72 h of drug treatment, means ± SD of 3 independent experiments
Experimental: as §1

[4] = system: U937 (human monoblastic leukemia); experiment: Cytotoxicity assay (Cell Counting Kit-8), U937; assay type: cell-based; conditions: for IC50: 72 h of drug treatment, Cell Counting Kit-8, means ± SD of 3 independent experiments; for times less potent than 1 and 2: U937 cell lines, SAR comparison
Experimental: as §1

[5] = system: A549 (human lung carcinoma); experiment: Cytotoxicity assay (Cell Counting Kit-8), A549; assay type: cell-based; conditions: 72 h of drug treatment, means ± SD of 3 independent experiments
Experimental: as §1

[6] = system: human breast cancer cell line MCF-7; design: method as in PMID 15639346; conditions: cited from earlier work
[7] = system: normal mouse RAW 264.7 macrophages; experiment: Cytotoxicity assay (Cell Counting Kit-8), RAW 264.7; assay type: cell-based; conditions: for IC50: normal mouse macrophage cell line, 72 h of drug treatment, Cell Counting Kit-8; for toxicity against normal mouse RAW 264.7 macrophages compared with cancer cells: in words
Experimental: as §1

U937 cells [8] = experiment: Western blot analysis of cell cycle regulators and apoptosis-related proteins; assay type: cell-based, human
Experimental: Cells were lysed in RIPA buffer with phenylmethylsulfonyl fluoride (PMSF; Beyotime Biotechnology, Jiangsu, China). The protein concentration was determined using a Bio-Rad protein assay system (Bio-Rad, Hercules, CA, USA). Equivalent amounts of proteins were separated by SDS–PAGE and then transferred to polyvinylidene difluoride membranes (Bio-Rad). After blocking in TBS containing 5% nonfat milk, the membranes were incubated with primary antibodies (1:1000 dilution) at 4 °C for 12 h and then incubated with a horseradish peroxidase-conjugated secondary antibody (1:5000 dilution). Signals were detected on X-ray film using an ECL detection system (Pierce, Rockford, IL, USA). The relative protein levels were calculated based on β-actin as the loading control.

[9] = system: A549, Hep-3B, PC-3, HT29, and U937 cancer cells; experiment: Antiproliferative activity, panel of five cancer cell lines; assay type: cell-based; conditions: Homo sapiens, read-out: IC50 values, range over five cancer cell lines
Experimental: as §1

U937 cells [10] = experiment: Cell cycle and sub-G1 analysis by flow cytometry (PI staining); assay type: cell-based, human; conditions: for time course cell cycle analysis: 5 μM mesonol A or 10 μM mesonol B, 3-24 h; for effect of NAC pretreatment on compound-induced cell cycle change (sub-G1 accumulation or G2/M arrest): 10 mM NAC for 1 h, then 5 µM mesonol A 12 h or 10 µM mesonol B 6 h
Experimental: U937 cells were treated with mesonols A (1) or B (2), dosage range: 0.625–10 µM, for the specified time period, fixed in ice-cold 70% ethanol in PBS, suspended in Krishan’s reagent (0.05 mg/mL propidium iodide (PI), 0.1% sodium citrate, 0.02 mg/mL ribonuclease A and 0.3% NP-40), and incubated on ice for 30 min. Data acquisition for 10,000 events was performed with an FACScan system (Becton Dickinson). The distribution of cells in the different phases of the cell cycle was analyzed from the DNA histograms using CELL Quest software. All experiments were performed in triplicate.

U937 cells [11] = experiment: Measurement of intracellular ROS generation (DCFDA); assay type: cell-based, human; conditions: for intracellular ROS levels compared to control: 5 µM mesonol A or 10 µM mesonol B, 30 min, DCFH-DA
Experimental: U937 cells were seeded onto 96-well microplates at a final concentration of 1 × 10^5 cells per well and treated with mesonol A or B (5 or 10 µM) for 30 min with or without pretreatment with N-acetylcysteine (NAC) (10 mM) for 1 h. The cells were stained with 2′,7′-dichlorofluorescin diacetate (DCFDA) Cellular Reactive Oxygen Species Detection Assay Kit (Abcam, Cambridge, UK) solution (20 µM) and then incubated at 37 °C for 30 min in the dark. Fluorescence measurements were performed with a fluorescence plate reader (Bio-Rad, Hercules, CA, USA) at Ex/Em = 485/535 nm in end point mode in the presence of compounds, medium, or buffer. All experiments were performed in triplicate.

| Compound | IC50 ([1]; Homo sapiens, 72 h) | IC50 ([7]; RAW264.7) | IC50 ([2]; Homo sapiens, Hep3B, 72 h) | IC50 ([3]; Homo sapiens, HT-29, 72 h) | IC50 ([4]; Homo sapiens, U-937, 72 h) | IC50 ([5]; Homo sapiens, A549, 72 h) | IC50 [9] | other results |
| --- | --- | --- | --- | --- | --- | --- | --- | --- |
| CCc1c2c(nc3ccc(OC(=O)N4CCC(N5CCCCC5)CC4)cc13)-c1cc3c(c(=O)n1C2)COC(=O)[C@]3(O)CC [CPT-11, reference compound] |  |  |  |  |  |  |  | IC50 [1]: 31.03 ± 0.28 µM; IC50 [2]: 23.2 ± 0.38 µM; IC50 [3]: 15.1 ± 0.48 µM; IC50 [4]: 4.95 ± 0.43 µM; IC50 [5]: 15.3 ± 0.42 µM |
| CC1(C)CCC[C@]2(C)[C@@H]1CC[C@@]13C[C@@H](CC[C@H]12)[C@@](O)(CO)C3.CC1(C)CCC[C@]2(C)[C@@H]1CC[C@@]13C[C@@H](CC[C@H]12)[C@@](O)(CO)C3.O (single isomer, unassigned; ent-16) [ent-16β,17α-dihydroxykaurane] |  |  |  |  |  |  |  | cytotoxicity and apoptotic effects [6]: exhibit cytotoxicity and apoptotic effects |
| C=C1C2CC3C4(C)CCCC(C)(C)C4CCC3(C1O)C(O)C2O (stereo not drawn) [Compound 10, 13α,14β,15β-trihydroxyl-ent-atis-16-ene] | > 20 µM | > 50 µM | > 20 µM | > 20 µM | > 20 µM | > 20 µM |  |  |
| C=C1C2CC3C4(C)CCCC(C)(C)C4CCC3(CC2O)C1O (stereo not drawn) [Compound 9, 13α,15β-trihydroxy-ent-atis-16(17)-ene] | > 20 µM | > 50 µM | > 20 µM | > 20 µM | > 20 µM | > 20 µM |  |  |
| CC1(C)CCCC2(C)C1CCC13CC=C(CO)C1OC(=O)CC23 (stereo not shown) [Compound 11, sarcopetal-13(16)-en-17-ol-12,15-olide] | > 20 µM | > 50 µM | > 20 µM | > 20 µM | > 20 µM | > 20 µM |  |  |
| CC1(C)CCCC2(C)C1CCC13CC(C(O)CC21)C(O)(CO)C3O (stereo not drawn) [Compound 5, 12α,15β,16α,17-tetrahydroxy-ent-kaurane] |  |  |  |  |  |  |  | IC50 [1]: > 20 µM; IC50 [7]: > 50 µM; IC50 [2]: > 20 µM; IC50 [3]: > 20 µM; IC50 [4]: > 20 µM; IC50 [5]: > 20 µM |
| CC1(C)CCCC2(C)C1CCC13CC(C(=O)CC21)C(O)(CO)C3O (stereo not drawn) [Compound 7, 15β,16β,17-trihydroxy-ent-kaur-12-one] | > 20 µM | > 50 µM | > 20 µM | > 20 µM | > 20 µM | > 20 µM |  |  |
| CC1(C)CCCC2(C)C1CCC13C(O)C(C(=O)CC21)C(O)(CO)C3O (stereo not drawn) [Compound 6, 14β,15β,16β,17-tetrahydroxy-ent-kaur-12-one] | > 20 µM | > 50 µM | > 20 µM | > 20 µM | > 20 µM | > 20 µM |  |  |
| CC1(C)CCCC2(C)C1CCC13CC(C(O)CC12)C(O)(CO)C3=O (stereo not drawn) [Compound 1, 12α,16β,17-trihydroxy-ent-kaur-15-one] | 12.5 ± 0.24 µM | > 50 µM | 12.1 ± 0.55 µM | 9.1 ± 0.38 µM | 2.66 ± 0.14 µM | 17.4 ± 0.28 µM | 1.97 to 19.9 µM | toxicity against normal mouse RAW 264.7 macrophages compared with cancer cells [7]: less toxic against normal mouse RAW 264.7 macrophages; G2/M progression proteins cdc25c, cyclin B1, CDK1 (U937 cells [8]; 5 µM, 12 h): decreases in the G2/M progression proteins cdc25c, cyclin B1, and CDK1; p21 protein level (U937 cells [8]; 5 µM, 12 h): significant increase in p21 protein; time course cell cycle analysis (U937 cells [10]): time-dependent accumulation of cells arrested in the G2/M phase; effect on cell population at G2/M phase (U937 cells [10]; 10 μM, 24 h): significant increase in the cell population at G2/M phase; effect of NAC pretreatment on compound-induced cell cycle change (sub-G1 accumulation or G2/M arrest) (U937 cells [10]): little to no effect; effect on percentage of sub-G1 population, dose response (U937 cells [10]; 0.625-10 μM, 24 h, plateau at 5 μM): dose-dependently increased the percentage of the sub-G1 population; intracellular ROS levels compared to control (U937 cells [11]): did not induce an increase in intracellular ROS levels |
| CC1(C)CCCC2(C)C1CCC13CC(C(O)CC21)C(O)(CO)C3O (stereo not drawn) [Compound 3, 12α,15β,16β,17-tetrahydroxy-ent-kaurane] | 16.5 ± 0.55 µM | > 50 µM | 17.1 ± 0.73 µM | 14.2 ± 0.31 µM |  | 17.1 ± 0.36 µM | 1.97 to 19.9 µM | IC50 [4]: 6.73 ± 0.36 µM; times less potent than 1 and 2 [4]: 2–3 times |
| CC1(C)CCCC2(C)C1CCC13CC(C(O)CC21)C(O)(CCl)C3O (stereo not drawn) [Compound 4, 12α,15β,16β-trihydroxy-17-chloro-ent-kaurane] | 16 ± 0.21 µM | > 50 µM | 19.9 ± 0.73 µM | 12.6 ± 0.55 µM | 8.25 ± 0.24 µM | 19.4 ± 0.38 µM | 1.97 to 19.9 µM | times less potent than 1 and 2 [4]: 2–3 times |
| CC1(C)CCCC2(C)C1CCC13CC(C(O)CC12)C(CO)C3=O (stereo not drawn) [Compound 2, 12α-hydroxy-16β-hydroxymethyl-ent-kaur-15-one] | 4.19 ± 0.31 µM | > 50 µM | 7.06 ± 0.38 µM | 2.78 ± 0.03 µM | 1.97 ± 0.09 µM | 7.39 ± 0.42 µM | 1.97 to 19.9 µM | toxicity against normal mouse RAW 264.7 macrophages compared with cancer cells [7]: less toxic against normal mouse RAW 264.7 macrophages; PARP cleavage (U937 cells [8]; 10 µM, 6 h): significantly cleaved and activated; antiapoptotic proteins (Bcl-2, Bcl-xL) (U937 cells [8]; 10 µM, 6 h): decreases in antiapoptotic proteins, including Bcl-2 and Bcl-xL; caspase-9 and -3 activation (pro-caspase-9 and -3 protein levels) (U937 cells [8]; 10 µM, 6 h): induced the activation of caspase-9 and -3; proapoptosis-related proteins (Bax, cytochrome c, apaf-1) (U937 cells [8]; 10 µM, 6 h): increases in proapoptosis-related proteins, including Bax, cytochrome c and apaf-1; time course cell cycle analysis (U937 cells [10]): did not cause an obvious accumulation of cells in any phase but significantly increased apoptotic cells in the sub-G1 population; sub-G1 population (U937 cells [10]; 5 μM, 24 h): 6.33%; sub-G1 population (U937 cells [10]; 10 μM, 24 h): 53.86%; effect of NAC pretreatment on compound-induced cell cycle change (sub-G1 accumulation or G2/M arrest) (U937 cells [10]): significantly suppressed; intracellular ROS levels compared to control (U937 cells [11]): significantly higher than those in control cells; intracellular ROS levels with NAC pretreatment (U937 cells [11]; 10 mM NAC 1 h, then 10 µM mesonol B 30 min): could be blocked by pretreatment with NAC |
